Holding throughout (experiment): NCI tumour cell line growth inhibition, 48 h
The subject of assay [1] is DU-145 prostate.
Assay [2] relates to NCI-H460 lung.
The test system of assay [3] is OVCAR-8 ovarian.
The test system of assay [4] is M14 melanoma.
Assay [5] has as its system MCF7 breast.
The subject of assay [6] is CAKI-1 renal.
The subject of assay [7] is HCT-15 colon.
The test system of assay [8] is NCI-H23 lung.
Assay [9] deals with COLO 205 colon.
Assay [10] has as its system HCC-2998 colon.

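Method: 48-hour compound exposure of cells in 96-well plates, five concentrations, linear interpolation of endpoints. Here, GI50 denotes the concentration required for 50% inhibition of growth. The concentration for full growth arrest is given as TGI.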

Regarding `CSc1nc2cc(S(=O)(=O)N3CCCCC3)ccc2s1`, the TGI in assay [1], in [2], in assay [3], in assay [4], in assay [5] and in assay [6] was over 100 µM in each case. Further, the TGI in assay [7], in assay [8] and in [9] was over 100 µM throughout.

For the molecule `CC1(C)N=C(N)N=C(N)N1c1ccc(OCc2ccc(S(=O)(=O)F)c(Cl)c2)c(Cl)c1`, the GI50 in assay [1] is 4 µM; in assay [2], 0.426 µM; in assay [3] it was 0.735 µM; in assay [4], 1.52 µM; in [5], 0.641 µM; in assay [7], 0.586 µM. Also, the GI50 in assay [10] is 4.97 µM; in [8], 2.09 µM; in assay [9] it was 5.74 µM. For the same molecule, the TGI in assay [1], in assay [2], in assay [3], in assay [4], in assay [5] and in assay [7] was over 100 µM in each case. Moreover, the TGI in [10], in assay [8] and in [9] was over 100 µM throughout.

For `COc1cc2c3c(n(CCCCOC(=O)C(Cl)(Cl)Cl)c(=O)c2cc1OC)-c1cc2c(cc1C3=O)OCO2`, the GI50 is 20.4 µM in [1]; 2.41 µM in assay [2]; 27.9 µM in assay [3]; 24.3 µM in [4]; 11.5 µM in assay [5]; 4.61 µM in assay [6]. Also, the GI50 was over 100 µM in [7], 92 µM in [8] and over 100 µM in assay [9]. Also, the TGI in assay [1] was over 100 µM; in assay [2] it was over 100 µM; in [3] it was over 100 µM; in assay [4] it was 71.9 µM; in [5], over 100 µM; in [6], over 100 µM. Further, the TGI in assay [7], in assay [8] and in [9] was over 100 µM each time.

For the molecule `COC(=O)c1c(C)[nH]c(/C=C2\N=C(c3ccc[nH]3)C=C2OC)c1C`, the GI50 in [1] was 0.426 µM; in assay [2], 0.147 µM; in [3] it was 0.229 µM; in assay [4] it was 0.209 µM; in assay [5], 0.413 µM; in assay [7], 0.0375 µM. Besides, the GI50 is 0.668 µM in assay [10], 0.483 µM in [8] and 0.288 µM in assay [9]. Moreover, the TGI in assay [1] was over 100 µM; in [2] it was over 100 µM; in assay [4], 0.619 µM; in assay [5] it was 3.12 µM; in [7], 1.24 µM; in assay [10] it was 2.78 µM. The results for the TGI in assay [8] and in [9] were 4.55 µM and 1.6 µM, respectively.

Regarding `Cn1c2ccccc2c2c3[nH]c(=O)[nH]c(=O)c3c3c4ccccc4n(C)c3c21`, the GI50 in assay [1] is 1.51 µM; in assay [2], 3.09 µM; in assay [3], 2.94 µM; in [4] it was 2.43 µM; in [5], 1.9 µM; in assay [7], 1.62 µM. The results for the GI50 in assay [10], in [8] and in assay [9] were 8.25 µM, 3.47 µM and 2.44 µM, respectively. For the same molecule, the TGI in [1] is over 100 µM; in assay [2], over 100 µM; in assay [3], 14.1 µM; in [4], over 100 µM; in assay [5] it was over 100 µM; in assay [7], over 100 µM. Also, the TGI in assay [10] was over 100 µM; in assay [8], 19.4 µM; in assay [9], over 100 µM.

Take `COC(=O)C12C3C4C1C1C2C3C41NC(=O)c1csc([C@@H](C[C@H](C(C)C)N(C)C(=O)[C@@H](NC(=O)[C@H]2CCCCN2C)C2CC2)OC(C)=O)n1` (some centres not stated): the GI50 was 0.00671 µM in assay [1]; 0.0489 µM in [2]; 0.0404 µM in assay [3]; 0.0253 µM in assay [4]; 0.00606 µM in assay [5]; 0.138 µM in assay [7]. Moreover, the GI50 in [10] was 0.146 µM; in assay [8], 0.151 µM; in assay [9], 0.00727 µM. The TGI in [1], in assay [2], in assay [3], in assay [5], in assay [7] and in [10] was over 33.3 µM throughout. In addition, the TGI in assay [8] was over 33.3 µM; in assay [9], 0.379 µM.

For the molecule `CC[C@H](C)[C@H]1O[C@]2(C=C[C@@H]1C)C[C@@H]1C[C@@H](C/C=C(\C)[C@@H](O[C@H]3C[C@H](OC)[C@@H](O[C@H]4C[C@H](OC)[C@@H](NC)[C@H](C)O4)[C@H](C)O3)[C@@H](C)/C=C/C=C3\CO[C@@H]4[C@H](O)C(C)=C[C@@H](C(=O)O1)[C@]34O)O2`, the GI50 in [2] was 1.84 µM; in assay [3] it was 3.84 µM; in assay [4], 1.93 µM; in assay [5], 1.85 µM; in assay [6] it was 1.89 µM; in assay [7] it was 1.78 µM. In addition, the values for the GI50 in assay [10], in assay [8] and in [9] were 1.89 µM, 2.73 µM and 1.77 µM, respectively. The TGI in assay [2] was 3.63 µM; in assay [3], 14.5 µM; in assay [4], 3.98 µM; in assay [5], 4.34 µM; in assay [6], 5.02 µM; in assay [7], 4.46 µM. For the same molecule, the TGI in assay [10] came to 3.36 µM; in [8], 8.34 µM; in assay [9] it was 3.39 µM.

As to `CC(C)(C)c1ccc(O)c(CN(Cc2cc(C(C)(C)C)ccc2O)c2ccccc2)c1`, the TGI in [1] is 38.3 µM; in assay [2], 30.9 µM; in assay [3], 37.5 µM; in assay [4] it was 28.2 µM; in assay [5], 38.9 µM; in assay [6] it was over 100 µM. In addition, the TGI in assay [7] is 35.8 µM; in assay [8], 40.8 µM; in assay [9], 30.9 µM.

As to `CNc1nc(N)c(N=O)c(Nc2ccc(Br)cc2)n1`, the TGI in [1], in assay [2], in assay [3], in [5], in [7] and in assay [10] was over 100 µM in each case. Moreover, the TGI in assay [8] and in assay [9] was over 100 µM in each case.

For the origin of these results see PubChem BioAssay (NCI).
